Measured values published in US20130096067A1, “DROSOPHILA TUMOR STEM CELL MODEL AND USES THEREOF” (priority 2011, published 2013).
Entries after “also recorded” stand apart in the source; their conditions may differ. Like-named read-outs stand apart in the source and are kept apart here.

Columns and labels:
[1] = test system: Raf-1^gof TSCs; test: Visualization of Raf-1^gof tumors in dissected guts by esg-GFP and Delta staining; type: in vivo, Drosophila
Description: Samples were incubated 1 hour in 5% NDS blocking solution, overnight in primary antibody, 1.5 hours in secondary antibody and 6 minutes in DAPI. They were rinsed and washed between steps in PBS containing 0.1% Triton X-100. Finally they were placed in mounting media (Vectashield) and mounted for microscopy. Images were taken with a Leica TCS SP2 confocal microscope.
(§1) Primary screening drugs were provided by the Harvard Institute for Chemistry and Cell Biology (ICCB; 480 known bioactives library), and the National Cancer Institute (NCI) Drug Therapeutics Program (library of 88 FDA-approved oncology drugs). Secondary assays were conducted with freshly prepared 10 mM stocks that were diluted 1:100 in fly food, giving a final concentration of 100 μM.
(§2) Drugs were dissolved in 100% DMSO. Drugs were mixed 1:100 with molten fly food at 37° C. and then aliquoted to either 5 mL tubes or 1 mL wells of a 96-well plate.
Control flies were treated with DMSO.
Flies were treated with DMSO alone as a control.

[2] = test system: Raf-1^gof tumor cells; test: esg-Gal4 luciferase assay in whole-fly lysates of control and drug-treated flies (validation and replicate assays); type: in vivo, Drosophila
Description: as §1, §2
Flies were anesthetized and transferred in pools of 3 to 96-well plates containing 100 μL of glo lysis buffer (Promega E2661) and homogenized with a multiple homogenizer (Burkard Scientific BS00253) for 3-5 minutes. The plates were then centrifuged for 5 minutes at 4,000 rpm, and the lysates were then transferred to new 96-well “master” plates. Firefly luciferase assays were conducted with 20 μL of lysate as specified by Promega. Luminescence was counted using the Molecular Devices Analyst GT plate reader.
To exploit the TSC model for in vivo chemical screens, a high-throughput method was developed to track tumor growth, using a luciferase reporter assay instead of the conventional method of visualizing tumors with GFP. […] The esg-Gal4 driver was employed to express luciferase in the TSCs and the effects of various compounds were compared by measuring luciferase in homogenates of control and drug-treated flies.

[3] = test system: Raf-1^gof intestinal tumors; settings: for Fold: luciferase relative to DMSO, fed three consecutive days in vials; for Log2 (fold) (luciferase activity, log2 of the fold difference relative to DMSO controls) / Fold (luciferase activity, fold difference relative to DMSO controls): screen of 480 ICCB compounds in vials, compounds fed to flies with one-day old Raf-1^gof tumors, esg-Gal4 luciferase
[4] = test system: JAK-STAT signaling; test: upd3-GFP reporter for JAK-STAT signaling in wild-type guts; type: in vivo, Drosophila; settings: EC cells
Description: (§3) Flies were treated with DMSO alone as a control. […].
(§4) For example, subjecting the fly intestine to the detergent dextran sulfate sodium (DSS) or to pathogen infection, induces ECs to activate the JNK stress-related pathway and to express IL-6 related cytokines (Unpaireds/Upds) (Jiang et al., 2009; Buchon et al., 2009; Apidianakis et al., 2009). The Upds activate JAK-STAT signaling in the ISCs, driving them to overproliferate. To determine if these same pathways are activated in response to FDA anti-cancer drugs, the puc-lacZ reporter was used to monitor JNK signaling, and a Gal-4 enhancer trap to monitor expression of Upd-3, the Upd cytokine preferentially expressed in the gut in response to injury (Jiang et al., 2009).

[5] = test system: Raf-1^gof intestinal tumors; test: Luciferase screen of FDA-approved (NCI) drugs in 96-well plates, flies with Raf-1^gof intestinal tumors; type: in vivo, Drosophila; settings: for Avg (3 + 6): average of Day 3 and Day 6 fold; for Log2 (fold): log2 of the Day 3 fold difference in luciferase relative to DMSO controls; for Day 3 Fold: luciferase activity relative to DMSO controls, single dose of drug for three days, 96-well plates; for Day 6 Fold: six-day protocol: single dose for three days, then another dose for three more days
[6] = test system: JNK signaling; test: puc-LacZ reporter for JNK signaling in wild-type guts; type: in vivo, Drosophila; settings: EC cells
Description: as §3, §4

[7] = test system: ISCs/EBs; test: Drug-induced ISC/EB expansion in animals with loss-of-function JAK allele hop^msv1; type: in vivo, Drosophila; settings: loss-of-function JAK allele hop^msv1 vs wild type
Description: FIG. 7. FDA anti-cancer drugs that block TSCs can have differential effects on the microenvironment and growth of wild-type ISCs. […] Flies were treated with DMSO alone as a control. […]. […] C) The expansion of ISCs/EBs in response to bortezomib and paclitaxel is less severe in animals with a loss-of-function JAK allele, hop^msv1.
Controls: yw,yv;attP2 (Ni et al., 2008). Gal4 drivers and reporters: esg-Gal4,UAS-GFP,tub-Gal80^ts (Micchelli et al., 2006), UAS-luc2(luciferase at attP2) (Markstein et al., 2008), puc-lacZE69 (Ring et al., 1993), #42685}, upd3-Gal4 (Agaisse et al., 2003). UAS constructs: UAS-Raf-1^gof (Brand et al., 1994), UAS-raptor-RNAi (TRIP stock JF01088), UAS-Dsor-RNAi (TRIP stock JF01697), UAS-Akt-RNAi (TRIP stock HMS00007). UAS-NotchDN (Jacobsen 1998). Mutants: hop^msv1 (Perrimon et al., 1986). Using the above stocks, an esg-Gal4 stock was created with both an inducible GFP reporter and an inducible Luciferase reporter: esg-Gal4,UAS-GFP,tub-Gal80^ts; UAS-luc2. For the chemical screens the following cross was performed to create Raf-1^gof intestinal tumors marked with GFP and luciferase: UAS-Raf-1^gof X esg-Gal4,UAS-GFP,tub-Gal80^ts; UAS-luc2. […]

[8] = Table 3 summary of hits, Screen ICCB
[9] = assessed three days later, averaged from multiple wells
[10] = esg-GFP in dissected guts, DMSO control

Row | Compound | Fold [3, 8] | Log2 (fold) (luciferase activity, log2 of the fold difference relative to DMSO controls) ([3]; assessed three days later) | Fold (luciferase activity, fold difference relative to DMSO controls) [3, 9] | expression of upd3-GFP / Upd-3 reporter (JAK-STAT signaling) [4] | Avg (3 + 6) [5] | Log2 (fold) [5] | Day 3 Fold [5] | Day 6 Fold [5] | expression of puc-lacZ reporter (JNK signaling) [6] | also measured
1 | COc1cc2c(c(OC)c1OC)-c1ccc(OC)c(=O)cc1[C@@H](NC(C)=O)CC2 [colchicine] | – | – | – | – | – | – | – | – | – | effect on Raf-1^gof tumor cells / tumor growth ([1]; in vivo): eliminated virtually all of the tumor cells; also recorded: eliminates virtually all of the Raf-1^gof tumor cells; also recorded: virtually all of the tumor cells were lost; effect on luciferase activity ([2]; in vivo): steep drop in luciferase activity; loss of luciferase activity ([2]; in vivo): about 80%
2 | CN(Cc1cnc2nc(N)nc(N)c2n1)c1ccc(C(=O)N[C@@H](CCC(=O)O)C(=O)O)cc1 [Methotrexate] | 0.160 fold | −2.648 | 0.160 | no effect on the expression of any of the reporters | 0.094 fold | −3.231 | 0.107 fold | 0.081 fold | no effect on the expression of any of the reporters | expression of upd3-GFP / Upd-3 reporter (JAK-STAT signaling) ([4]; listed as methotrexate): expressed neither reporter; expression of puc-lacZ reporter (JNK signaling) ([6]; listed as methotrexate): expressed neither reporter
3 | Nc1ncnc2c1c(I)cn2[C@@H]1O[C@H](CO)[C@@H](O)[C@H]1O [5-iodotubercidin, reference compound] | 0.530 fold | −0.917 | 0.530 | – | – | – | – | – | – | effect on Raf-1^gof tumor cells / tumor growth [1, 10]: reduced tumor growth
4 | Bleomycin | – | – | – | induced JNK and JAK-STAT signaling | 0.521 fold | 0.060 | 1.043 fold | 0.000 fold | induced JNK and JAK-STAT signaling | effect on Delta positive TSCs ([1]; Delta staining of dissected guts): failed to block TSCs
5 | CC(=O)O[C@H]1C(=O)[C@@]2(C)[C@H]([C@H](OC(=O)c3ccccc3)[C@]3(O)C[C@H](OC(=O)[C@H](O)[C@@H](NC(=O)c4ccccc4)c4ccccc4)C(C)=C1C3(C)C)[C@]1(OC(C)=O)CO[C@@H]1C[C@@H]2O [Paclitaxel] | 0.274 fold | −1.870 | 0.274 | inducing expression of puc-lacZ (red, upper panel) and upd3-GFP; also recorded: induced expression of both the JNK puc-lacZ reporter and the Upd-3 reporter | 0.695 fold | −1.808 | 0.285 fold | 1.104 fold | inducing expression of puc-lacZ; also recorded: induced expression of both the JNK puc-lacZ reporter and the Upd-3 reporter | expansion of ISCs/EBs in hop^msv1 animals [7]: less severe
6 | CC(C)C[C@H](NC(=O)[C@H](Cc1ccccc1)NC(=O)c1cnccn1)B(O)O [Bortezomib] | – | – | – | inducing expression of puc-lacZ (red, upper panel) and upd3-GFP; also recorded: induced expression of both the JNK puc-lacZ reporter and the Upd-3 reporter | 0.607 fold | −2.013 | 0.248 fold | 0.967 fold | inducing expression of puc-lacZ; also recorded: induced expression of both the JNK puc-lacZ reporter and the Upd-3 reporter | expansion of ISCs/EBs in hop^msv1 animals [7]: less severe
7 | C[C@H](NC(=O)Cc1cc(F)cc(F)c1)C(=O)N[C@H]1N=C(c2ccccc2)c2ccccc2N(C)C1=O [Compound E, reference compound] | 2.696 fold | – | – | – | – | – | – | – | – | effect on Raf-1^gof tumor cells / tumor growth [1, 10]: augmented tumor growth; also recorded: increased tumor growth; also recorded: dramatic expansion of the tumor; Log2 (fold) of luciferase activity relative to DMSO controls ([3]; ICCB compounds fed in vials to flies with one-day old Raf-1^gof tumors, assessed three days later): 1.431; Fold (luciferase activity relative to DMSO controls) ([3]; ICCB compounds fed in vials to flies with one-day old Raf-1^gof tumors, assessed three days later, averaged from multiple wells): 2.696 fold; Log2 (fold) [3, 8]: 1.431; effect on luciferase activity ([2]; whole-animal extracts vs DMSO controls): augmented tumor growth and luciferase activity
